The values that follow come from patent US12643906B2, “Fused aza-heterocyclic amide compound and use thereof” (CSPC ZHONGQI PHARMACEUTICAL TECHNOLOGY (SHIJIAZHUANG) CO., …, priority 2020, dated 2026).

In one test the target is T1, TRKA(G667C) (Homo sapiens, UniProt P04629, G667C).
T1 construct: purchased signalchem
Nature of the test: HTRF kinase inhibition assay, TRKA(G667C). In kind it is biochemical. The procedure: (§1) The compound to be tested with a certain concentration gradient and an enzyme solution were successively added into a plate (kinase buffer (1× kinase buffer (Cisbio, Cat #62EZBFDD), pH 7.5; 5 mM MgCl2, 1 mM DTT) was added into negative control wells), and the compound plate was centrifuged at 1000 rpm for 30 seconds. The plate was sealed and incubated in a Constant Temperature Incubator at 25° C. for 30 min. A substrate solution containing TK-Sub-biotin (Cisbio, Cat #61TKOBL) and ATP (Sigma, Cat #R0441) was prepared, the substrate solution was added into a 384-well plate, and the plate was centrifuged at 1000 rpm for 30 seconds. The plate was sealed and incubated in a Constant Temperature Incubator at 25° C. for 60 min.
(§2) TK antibody and XL665 were diluted, mixed and added into the assay plate, and the plate was centrifuged at 1000 rpm for 30 seconds. The plate was sealed and incubated in a Constant Temperature incubator Incubator at 25° C. for 60 min. The assay plate was placed on an Envision reader for reading. (HTRF 665/615 ratio: signal value at 665 nm/signal value at 615 nm) Inhibition=(rationegative control well−ratiocompound well)/(rationegative control well−ratioenzyme-free control well)×100% 1.3 Data Analysis and Curve Fitting
(§3) Data were fitted in XLFit excel add-in version 5.4.0.8 to obtain IC50 values.

Another test concerns the target T2, TRKC(G696A) (Homo sapiens, UniProt Q16288, G696A).
T2 construct: purchased Bioduro
Kind of test: HTRF kinase inhibition assay, TRKC(G696A). The class given is biochemical. The procedure:
as §1
(§4) TK antibody and XL665 were diluted, mixed and added into the assay plate, and the plate was centrifuged at 1000 rpm for 30 seconds. The plate was sealed and incubated in a Constant Temperature incubator Incubator at 25° C. for 60 min. The assay plate was placed on an Envision reader for reading.
as §3

The target of another test is T3, Ba/F3 ETV6-NTRK3-G696A (Homo sapiens, UniProt Q16288, G696A, cells depend on it).
T3 construct: fused on or other part: P41212 (Transcription factor ETV6)
Nature of the test: In vitro cell proliferation inhibition (MTT). The following applies: 72 h, read-out: IC50 Ba/F3 ETV6-NTRK3-G696A. In kind it is cell-based, murine. The protocol: • Source of 6 kinds of cell lines for the test: KYinno Biotechnology (Beijing) Co., Ltd. • Cell type: murine B cells • Culture medium: RPMI-1640+10% FB S 2. Test Method
Cells in the logarithmic growth phase were harvested and counted using a […]. The cell suspension with a certain density was pipetted uniformly and seeded into a 96-well plate with each well of 100 μL, and shaken to make the cells uniformly disperse into the wells. 100 μL of compound solution with certain concentration gradient was added into each well, and 3 duplicate wells were set for each concentration. The plate was cultured in a CO2 incubator at 37° C. for 72 h. 20 μL of MTT working solution (5 mg/mL) was added into each well, and the plate was placed at 37° C. for 4 h, and centrifuged at 1000 rpm for 5 min by a plate centrifuge. After 180 μL of culture medium was discarded, the plate was added with 150 μL of DMSO, and mixed well with a microplate shaker, the plate bottom was wiped, and optical density (OD) at 550 nm was detected with a microplate reader.

Test [1] has as its system TRK, p-TRK, p-PLCγ1, p-AKT in Ba/F3 LMNA-NTRK1-G595R tumor tissues. Kind of test: In vivo mechanism study, western blot of tumor tissues. Details: species or system NuNu mice. The following applies: 100 mg/kg gavage, tumor taken 0.25-24 h. The procedure: A total of 3 mice in the control group were selected, and tumor tissues were taken and cryopreserved 4 h after the administration of the vehicle. The compound No. 4 of the present disclosure was administered to other groups at 100 mg/kg, and tumor tissues was taken at 0.25 h, 1 h, 4 h, 8 h, 12 h and 24 h for cryopreservation.
A certain mass of tumor tissue was taken and added into a corresponding volume of protein lysate (RIPA lysate (Thermo Fisher, Cat. No. 89900): protease inhibitor (cOmplete, Mini, EDTA-free, EASYpack; Roche, Cat. No. 04693159001): phosphatase inhibitor (PhosStop, EASY pack; Roche, Cat. No. 04906837001)=8:1:1), homogenized and lysed in ice bath for 30 min. The mixture was subjected to high-speed centrifugation at low temperature, and then the supernatant was taken for BCA protein quantification (procedure according to the BCA protein quantification kit (Qiagen, Cat. No. PA115-01)). Finally, after the protein concentration was adjusted to be uniform by lysate, loading buffer was added, and the mixture was boiled at 100° C. for 10 min.
4-20% of 10-well prefabricated gel was adopted; the sample loading amount was 100 μg; 140 V electrophoresis was performed for 1-1.5 h; the 300 mA wet-transfer was performed for 1.5-2 h; the membrane was blocked with 5% BSA for 2-3 h; incubating with primary antibody overnight at 4° C. […]

The next test addresses T4, TRKC(G623R) (Homo sapiens, UniProt Q16288, G623R).
T4 construct: purchased Bioduro
Kind of test: HTRF kinase inhibition assay, TRKC(G623R). The class given is biochemical. The procedure:
as §1, §2, §3

The target of another test is T5, TRKB (Homo sapiens, UniProt Q16620).
T5 construct: purchased Bioduro
Nature of the test: HTRF kinase inhibition assay, TRKB. In kind it is biochemical. The procedure: as §1, §4, §3

Turning to `O=C(Nc1ccc(N2CCN(C(=O)CO)CC2)cc1)c1cnn2ccc(N3C[C@@H](F)C[C@@H]3c3cc(F)ccc3F)nc12` [Compound 4, 5-((2R,4S)-2-(2,5-difluorophenyl)-4-fluoropyrrolidin-1-yl)-N-(4-(4-(2-hydroxyacetyl)piperazin-1-yl)phenyl)pyrazolo[1,5-a]pyrimidine-3-carboxamide], the 50% inhibitory concentration (IC50) is 0.183 nM against TRKA(G667C), 0.383 nM at TRKC(G696A), 0.205 nM against TRKC(G623R) and 0.986 nM against TRKB. Moreover, the GI50 on Ba/F3 ETV6-NTRK3-G696A came out at 0.466 nM. The “phosphorylation of p-PLCγ1/PLCγ1 and p-AKT/AKT in tumor tissues” value in test [1] is “effectively inhibit”. Further, in test [1], the “protein level of TRK and p-TRK in tumor tissues” value is given as “significantly reduce”.
